Data as given in patent US20250179066A1, “ZWITTERIONIC ANTIBACTERIAL COMPOUNDS” (Hoffmann-La Roche Inc., priority 2022, published 2025).

The compounds below were run on Acinetobacter baumannii ATCC17961 (assay: Antimicrobial susceptibility testing: 90% growth inhibitory concentration (IC90) determination). Conditions: Acinetobacter baumannii, ATCC17961, 16 h, 90% growth inhibitory concentration against Acinetobacter baumannii ATCC17961, Iso-Sensitest broth, OD 600 nm over 16 h; read-out: ATCC 17961 IC90.
Format: cell-based
How it was run: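 Twofold serial dilutions (e.g. 10 to 0.0195 μM final) in Iso-Sensitest broth inoculated at ~5×10^5 CFU/mL, incubated at 35±2° C. OD600 read every minute for 16 h; IC90 is the concentration inhibiting 90% of growth during logarithmic phase.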

Question: Which IC90 does the source give for Cc1cc(NC(=O)c2ncc(-c3cn(-c4ccc(O)cc4F)nc3C(F)(F)F)n2C)ccc1C(=O)N1CCN(C(=O)[C@H]2CC[N@@+](CCCN)(CC(=O)O)CC2)CC1 [Example 110, cis-2-[1-(3-aminopropyl)-4-[4-[4-[[5-[1-(2-fluoro-4-hydroxy-phenyl)-3-(trifluoromethyl)pyrazol-4-yl]-1-methyl-imidazole-2-carbonyl]amino]-2-methyl-benzoyl]piperazine-1-carbonyl]piperidin-1-ium-1-yl]acetic acid. 1:1 2,2,2-trifluoroacetate] here?
Answer: 0.207 µM

Question: How did the IC90 turn out when COCCNc1ccc(-n2cc(-c3cnc(C(=O)Nc4ccc(C(=O)N5CCN(C(=O)[C@H]6CC[N@+](CC(=O)O)(CC7CNC7)CC6)CC5)c(C)c4)n3C)c(C(F)(F)F)n2)c(F)c1 [Example 111, cis-2-[1-(azetidin-3-ylmethyl)-4-[4-[4-[[5-[1-[2-fluoro-4-(2-methoxyethylamino)phenyl]-3-(trifluoromethyl)pyrazol-4-yl]-1-methyl-imidazole-2-carbonyl]amino]-2-methyl-benzoyl]piperazine-1-carbonyl]piperidin-1-ium-1-yl]acetic acid;2,2,2-trifluoroacetate] was run?
Answer: 0.185 µM

Question: Which IC90 does the source give for Cn1c(-c2cn(-c3cc4[nH]c(C(=O)N5C[C@H]6CNC[C@H]6C5)cc4cn3)nc2C(F)(F)F)cnc1C(=O)Nc1ccc(C(=O)N2CCN(C(=O)[C@H]3CC[N@+](CC(=O)O)(CC4CNC4)CC3)CC2)c(Cl)c1 [Example 112, cis-2-[4-[4-[4-[[5-[1-[2-[(3aS,6aR)-2,3,3a,4,6,6a-hexahydro-1H-pyrrolo[3,4-c]pyrrole-5-carbonyl]-1H-pyrrolo[3,2-c]pyridin-6-yl]-3-(trifluoromethyl)pyrazol-4-yl]-1-methyl-imidazole-2-carbonyl]amino]-2-chloro-benzoyl]piperazine-1-carbonyl]-1-(azetidin-3-ylmethyl)piperidin-1-ium-1-yl]acetic acid. 1:1 2,2,2-trifluoroacetate] here?
Answer: 0.356 µM

Question: Which IC90 does the source give for Cn1c(-c2cn(-c3cc4[nH]c(C(=O)N5CC6(CCOCC6)C5)cc4cn3)nc2C(F)(F)F)cnc1C(=O)Nc1ccc(C(=O)N2CCN(C(=O)[C@H]3CC[N@+](CC(=O)O)(CC4CNC4)CC3)CC2)c(Cl)c1 [Example 113, cis-2-[1-(azetidin-3-ylmethyl)-4-[4-[2-chloro-4-[[1-methyl-5-[1-[2-(7-oxa-2-azaspiro[3.5]nonane-2-carbonyl)-1H-pyrrolo[3,2-c]pyridin-6-yl]-3-(trifluoromethyl)pyrazol-4-yl]imidazole-2-carbonyl]amino]benzoyl]piperazine-1-carbonyl]piperidin-1-ium-1-yl]acetic acid. 1:1 2,2,2-trifluoroacetate] here?
Answer: 0.707 µM

Question: Which IC90 does the source give for Cn1c(-c2cn(-c3cc4[nH]c(C(=O)N5CCS(=N)(=O)CC5)cc4cn3)nc2C(F)(F)F)cnc1C(=O)Nc1ccc(C(=O)N2CCN(C(=O)[C@H]3CC[N@+](CC(=O)O)(CC4CNC4)CC3)CC2)c(Cl)c1 [Example 114, cis-2-[1-(azetidin-3-ylmethyl)-4-[4-[2-chloro-4-[[5-[1-[2-(1-imino-1-keto-1,4-thiazinane-4-carbonyl)-1H-pyrrolo[3,2-c]pyridin-6-yl]-3-(trifluoromethyl)pyrazol-4-yl]-1-methyl-imidazole-2-carbonyl]amino]benzoyl]piperazine-1-carbonyl]piperidin-1-ium-1-yl]acetic acid. 1:1 2,2,2-trifluoroacetate] here?
Answer: 0.637 µM

Question: Cn1c(-c2cn(-c3cc4[nH]c(C(=O)NCCO)cc4cn3)nc2C(F)(F)F)cnc1C(=O)Nc1ccc(C(=O)N2CCN(C(=O)[C@H]3CC[N@+](CC(=O)O)(CC4CNC4)CC3)CC2)c(Cl)c1 [Example 115, cis-2-[1-(azetidin-3-ylmethyl)-4-[4-[2-chloro-4-[[5-[1-[2-(2-hydroxyethylcarbamoyl)-1H-pyrrolo[3,2-c]pyridin-6-yl]-3-(trifluoromethyl)pyrazol-4-yl]-1-methyl-imidazole-2-carbonyl]amino]benzoyl]piperazine-1-carbonyl]piperidin-1-ium-1-yl]acetic acid. 1:1 2,2,2-trifluoroacetate] was tested. Which IC90 did it give?
Answer: 0.295 µM

Question: For Cn1c(-c2cn(-c3cc4[nH]c(C(=O)N5CC6CNCC(C5)O6)cc4cn3)nc2C(F)(F)F)cnc1C(=O)Nc1ccc(C(=O)N2CCN(C(=O)[C@H]3CC[N@+](CC(=O)O)(CC4CNC4)CC3)CC2)c(Cl)c1 [Example 116, cis-2-[1-(azetidin-3-ylmethyl)-4-[4-[2-chloro-4-[[1-methyl-5-[1-[2-(9-oxa-3,7-diazabicyclo[3.3.1]nonane-3-carbonyl)-1H-pyrrolo[3,2-c]pyridin-6-yl]-3-(trifluoromethyl)pyrazol-4-yl]imidazole-2-carbonyl]amino]benzoyl]piperazine-1-carbonyl]piperidin-1-ium-1-yl]acetic acid. 1:1 2,2,2-trifluoroacetic acid. 1:1 2,2,2-trifluoroacetate], which IC90 is on record?
Answer: 0.213 µM

Question: With Cn1c(-c2cn(-c3cc4[nH]c(C(=O)NCC(O)C(F)(F)F)cc4cn3)nc2C(F)(F)F)cnc1C(=O)Nc1ccc(C(=O)N2CCN(C(=O)[C@H]3CC[N@+](CC(=O)O)(CC4CNC4)CC3)CC2)c(Cl)c1 (stereo partly drawn) [Example 117, cis-2-[1-(azetidin-3-ylmethyl)-4-[4-[2-chloro-4-[[1-methyl-5-[1-[2-[(3,3,3-trifluoro-2-hydroxy-propyl)carbamoyl]-1H-pyrrolo[3,2-c]pyridin-6-yl]-3-(trifluoromethyl)pyrazol-4-yl]imidazole-2-carbonyl]amino]benzoyl]piperazine-1-carbonyl]piperidin-1-ium-1-yl]acetic acid. 1:1 2,2,2-trifluoroacetate] as the compound, how does the IC90 read?
Answer: 0.215 µM

Question: Which IC90 does the source give for Cn1c(-c2cn(-c3cc4[nH]c(C(=O)N5CCNCC5)cc4cn3)nc2C(F)(F)F)cnc1C(=O)Nc1ccc(C(=O)N2CCN(C(=O)[C@H]3CC[N@+](CC(=O)O)(CC4CNC4)CC3)CC2)c(Cl)c1 [Example 118, cis-2-[1-(azetidin-3-ylmethyl)-4-[4-[2-chloro-4-[[1-methyl-5-[1-[2-(piperazine-1-carbonyl)-1H-pyrrolo[3,2-c]pyridin-6-yl]-3-(trifluoromethyl)pyrazol-4-yl]imidazole-2-carbonyl]amino]benzoyl]piperazine-1-carbonyl]piperidin-1-ium-1-yl]acetic acid. 1:1 2,2,2-trifluoroacetate] here?
Answer: 0.213 µM

Question: Which IC90 does the source give for Cn1c(-c2cn(-c3cc4[nH]c(C(=O)N5CCOC(F)(F)C5)cc4cn3)nc2C(F)(F)F)cnc1C(=O)Nc1ccc(C(=O)N2CCN(C(=O)[C@H]3CC[N@+](CC(=O)O)(CC4CNC4)CC3)CC2)c(Cl)c1 [Example 119, cis-2-[1-(azetidin-3-ylmethyl)-4-[4-[2-chloro-4-[[5-[1-[2-(2,2-difluoromorpholine-4-carbonyl)-1H-pyrrolo[3,2-c]pyridin-6-yl]-3-(trifluoromethyl)pyrazol-4-yl]-1-methyl-imidazole-2-carbonyl]amino]benzoyl]piperazine-1-carbonyl]piperidin-1-ium-1-yl]acetic acid. 1:1 2,2,2-trifluoroacetate] here?
Answer: 0.236 µM

Question: Which IC90 does the source give for Cn1c(-c2cn(-c3cc4[nH]c(C(=O)NC5CCNC5=O)cc4cn3)nc2C(F)(F)F)cnc1C(=O)Nc1ccc(C(=O)N2CCN(C(=O)[C@H]3CC[N@+](CC(=O)O)(CC4CNC4)CC3)CC2)c(Cl)c1 (stereo partly drawn) [Example 120, cis-2-[1-(azetidin-3-ylmethyl)-4-[4-[2-chloro-4-[[5-[1-[2-[(2-ketopyrrolidin-3-yl)carbamoyl]-1H-pyrrolo[3,2-c]pyridin-6-yl]-3-(trifluoromethyl)pyrazol-4-yl]-1-methyl-imidazole-2-carbonyl]amino]benzoyl]piperazine-1-carbonyl]piperidin-1-ium-1-yl]acetic acid. 1:1 2,2,2-trifluoroacetate] here?
Answer: 0.527 µM

Question: With Cn1c(-c2cn(-c3cc4[nH]c(C(=O)N5CCO[C@]6(CCOC6)C5)cc4cn3)nc2C(F)(F)F)cnc1C(=O)Nc1ccc(C(=O)N2CCN(C(=O)[C@H]3CC[N@+](CC(=O)O)(CC4CNC4)CC3)CC2)c(Cl)c1 [Example 121, cis-2-[1-(azetidin-3-ylmethyl)-4-[4-[2-chloro-4-[[5-[1-[2-[(5R)-2,6-dioxa-9-azaspiro[4.5]decane-9-carbonyl]-1H-pyrrolo[3,2-c]pyridin-6-yl]-3-(trifluoromethyl)pyrazol-4-yl]-1-methyl-imidazole-2-carbonyl]amino]benzoyl]piperazine-1-carbonyl]piperidin-1-ium-1-yl]acetic acid. 1:1 2,2,2-trifluoroacetate] as the compound, how does the IC90 read?
Answer: 0.375 µM

Question: Which IC90 does the source give for Cn1c(-c2cn(-c3cc4[nH]c(C(=O)N5CCSCC5)cc4cn3)nc2C(F)(F)F)cnc1C(=O)Nc1ccc(C(=O)N2CCN(C(=O)[C@H]3CC[N@+](CC(=O)O)(CC4CNC4)CC3)CC2)c(Cl)c1 [Example 122, cis-2-[1-(azetidin-3-ylmethyl)-4-[4-[2-chloro-4-[[1-methyl-5-[1-[2-(thiomorpholine-4-carbonyl)-1H-pyrrolo[3,2-c]pyridin-6-yl]-3-(trifluoromethyl)pyrazol-4-yl]imidazole-2-carbonyl]amino]benzoyl]piperazine-1-carbonyl]piperidin-1-ium-1-yl]acetic acid. 1:1 2,2,2-trifluoroacetate] here?
Answer: 0.235 µM

Question: With CN(C)C(=O)c1cc2cnc(-n3cc(-c4cnc(C(=O)Nc5ccc(C(=O)N6CCN(C(=O)[C@H]7CC[N@+](CC(=O)O)(CC8CNC8)CC7)CC6)c(Cl)c5)n4C)c(C(F)(F)F)n3)cc2[nH]1 [Example 123, cis-2-[1-(azetidin-3-ylmethyl)-4-[4-[2-chloro-4-[[5-[1-[2-(dimethylcarbamoyl)-1H-pyrrolo[3,2-c]pyridin-6-yl]-3-(trifluoromethyl)pyrazol-4-yl]-1-methyl-imidazole-2-carbonyl]amino]benzoyl]piperazine-1-carbonyl]piperidin-1-ium-1-yl]acetic acid. 1:1 2,2,2-trifluoroacetate] as the compound, how does the IC90 read?
Answer: 0.216 µM
